Calls of active or inactive are those of the source. No cut-off for these calls is given here.
Tests used:
[1] = (§1) Cytotoxicity against mouse NS1 cells; format: functional
NS1 = experiment: as §1; format: functional
Bacillus subtilis = experiment: Antibacterial activity against Bacillus subtilis; format: functional, organism-based
Candida albicans = experiment: Antifungal activity against Candida albicans; format: functional, organism-based

Row | SMILES | LD99 [1] [µg/mL] | Activity (NS1) | Activity (Bacillus subtilis) | Activity (Candida albicans)
1 | CC(=O)O[C@H]1C(=O)/C=C/C(=O)[C@@]23C(=O)N[C@@H](Cc4c[nH]c5ccccc45)[C@@H]2C(C)=C(C)[C@@H](O)[C@@H]3/C=C/C[C@H](C)/C=C\1C [19-O-ACETYLCHAETOGLOBOSIN B] | 1.6 | – | – | –
2 | C/C=C/c1cccc(O)c1CO | – | inactive | – | –
3 | C=C1[C@@H](C)[C@H]2[C@H](Cc3c[nH]c4ccccc34)NC(=O)[C@]23C(=O)/C=C/C(=O)[C@H](OC(C)=O)/C(C)=C\[C@@H](C)C/C=C/[C@H]3[C@@H]1O | 0.8 | – | – | –
4 | CC(O)CCCCC(C)C1CC(O)C(C)C(=O)N[C@H](C(C)C)C(=O)N2CCC[C@H]2C(=O)O1 (stereo not given in full) | – | inactive | inactive | inactive
5 | CC[C@@H](C)[C@H]1NC(=O)C(C)C(O)CC(C(C)CCCCC(C)O)OC(=O)[C@@H]2CCCN2C1=O (stereo not given in full) | – | inactive | inactive | inactive
6 | CC(O)CCCCC(C)C1CC(O)C(C)C(=O)N[C@H](Cc2ccccc2)C(=O)N2CCC[C@H]2C(=O)O1 (stereo not given in full) | – | inactive | inactive | inactive
7 | CC(=O)CCCCC(C)C1CC(O)C(C)C(=O)N[C@H](Cc2ccccc2)C(=O)N2CCC[C@H]2C(=O)O1 (stereo not given in full) | – | inactive | inactive | inactive

— ChEMBL document CHEMBL1144834, “Acremolides A-D, lipodepsipeptides from an Australian marine-derived fungus, Acremonium sp” (2008)
